Source: US20220031629A1, “OPHTHALMIC COMPOSITIONS FOR REMOVING MEIBUM OR INHIBITING MEIBUM BUILDUP” (Altaire Pharmaceuticals, Inc., priority 2020, published 2022)

Tested on: normal human keratinocytes/stratified squamous epithelium (EPIOCULAR model)
Assay: Ocular irritation MTT assay (EPIOCULAR model)
Type: cell-based
Procedure: Another ocular irritation study was done by exposing a microemulsion containing polyoxyl 35 castor oil in accordance with an embodiment of the present disclosure onto normal human keratinocytes/stratified squamous epithelium which is similar to that found in the cornea epithelium of the human eye (EPIOCULAR model), and then checking tissue viability with MTT assay for cytotoxicity after incubation in comparison with a water control (Cyprotex).

## COC(C)=O [Methyl Acetate]
MTT assay
  Irritation Response (Irritant if ≤ 60%): Positive
MTT assay after incubation, in comparison with water control
  Mean Tissue Viability: 31.1%
